According to paper PMC9574860, “Chemical Toolkit for PARK7: Potent, Selective, and High-Throughput” (Journal of Medicinal Chemistry, 2022):

Columns and labels:
[1] = target: T1, PARK7 (Homo sapiens, UniProt Q99497); assay: DiFMUAc PARK7 activity assay; type: biochemical; set-up: GST (N, cleaved yes); made in house; host or cells: E. coli BL21(DE3) Rosetta2; settings: for inhibition at 12.5 µM: read-out: DiFMuAc assay %Inhibiton (12.5 µM); for inhibition at 37.5 µM: read-out: DiFMuAc assay %Inhibiton (37.5 µM); for inhibition at 100 µM: read-out: DiFMuAc assay %Inhibiton (100 µM)
T1 sequence (Q99497 1-189): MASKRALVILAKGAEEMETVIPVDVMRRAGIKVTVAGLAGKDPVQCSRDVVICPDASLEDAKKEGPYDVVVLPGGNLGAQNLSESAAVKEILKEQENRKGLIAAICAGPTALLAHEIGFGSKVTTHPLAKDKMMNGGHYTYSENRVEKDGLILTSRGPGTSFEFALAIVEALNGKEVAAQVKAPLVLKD
Experimental: Compounds were transferred using a Labcyte Echo550 acoustic dispenser to obtain a 12-point serial dilution of 0.001 to 100 μM. Next, PARK7 (15 μL, final concentration of 0.1 μM) was dispensed with a Biotek MultiFlowFX liquid dispenser and incubated for 1 h, followed by dispensing the substrate DiFMUAc (5 μL, final concentration of 300 μM). The fluorescence intensity (FI) signal was monitored with a BMG Labtech PHERAstar plate reader (λex/em 350/450 nm) for 1 h.
The validation was performed in the PBS buffer with a reaction volume of 20 μL per well in triplicate. […] Next, PARK7 (15 μL, final concentration 0.1 μM) was dispensed with a Biotek MultiFlowFX liquid dispenser and incubated for 2 h, followed by dispensing the substrate DiFMUAc (5 μL, final concentration 300 μM). The FI signal was monitored with a BMG Labtech PHERAstar plate reader (λex/em 350/450 nm) for 1 h. The increase of FI signal compared with reference controls was used to calculate the remaining enzyme activity. The inhibition percentage of these 22 compounds was plotted as a heatmap using GraphPad Prism 9.0.1 software. Color gradients indicate inhibition percentage, no inhibiton (white) and full inhibition (blue).

[2] = target: T1, PARK7; assay: FP assay with Rhodamine110 probe JYQ-107 (IC50 and hit validation); type: binding; set-up: GST (N, cleaved yes); made in house; host or cells: E. coli BL21(DE3) Rosetta2; settings: for inhibition at 12.5 µM: read-out: FP assay %Inhibiton (12.5 µM); for inhibition at 37.5 µM: read-out: FP assay %Inhibiton (37.5 µM); for inhibition at 100 µM: read-out: FP assay %Inhibiton (100 µM)
Experimental: The assay was performed using the conditions as described above with a reaction volume of 20 μL per well in triplicate. Stock solutions of JYQ-88 of 1 and 0.1 mM were prepared. […] The FP signal was monitored with a BMG Labtech PHERAstar plate reader (λex/em 480/520 nm) for 2 h.
The validation was performed using the conditions as described above with a reaction volume of 20 μL per well in triplicate. […] The FP signal was monitored with a BMG Labtech PHERAstar plate reader (λex/em 480/520 nm) for 2 h. The relative loss of FP signal compared with reference controls was used to calculate the remaining enzyme activity. Inhibition percentage of these 40 compounds was plotted as a heatmap using GraphPad Prism 9.0.1 software. Color gradients indicate inhibition percentage, no inhibiton (white) and full inhibition (blue).

[3] = 12.5 µM compound, PARK7 0.2 μM, 1 h preincubation, JYQ-107 20 nM
[4] = 37.5 µM compound, PARK7 0.2 μM, 1 h preincubation, JYQ-107 20 nM
[5] = 100 µM compound, PARK7 0.2 μM, 1 h preincubation, JYQ-107 20 nM
[6] = 12.5 µM compound, PARK7 0.1 μM, 2 h preincubation, DiFMUAc 300 μM
[7] = 37.5 µM compound, PARK7 0.1 μM, 2 h preincubation, DiFMUAc 300 μM
[8] = 100 µM compound, PARK7 0.1 μM, 2 h preincubation, DiFMUAc 300 μM

SMILES | FP assay %Inhibiton (12.5 µM) [2, 3] [%] | FP assay %Inhibiton (37.5 µM) [2, 4] [%] | FP assay %Inhibiton (100 µM) [2, 5] [%] | DiFMuAc assay %Inhibiton (12.5 µM) [1, 6] [%] | DiFMuAc assay %Inhibiton (37.5 µM) [1, 7] [%] | DiFMuAc assay %Inhibiton (100 µM) [1, 8] [%] | inhibition at 12.5 µM [2, 3] [%] | inhibition at 37.5 µM [2, 4] [%] | inhibition at 100 µM [2, 5] [%] | inhibition at 12.5 µM [1, 6] [%] | inhibition at 37.5 µM [1, 7] [%] | inhibition at 100 µM [1, 8] [%] | also measured
O=C1C(=O)N(CCc2ccccc2)c2ccc(F)cc21 [STK793590, reference compound] |  |  |  |  |  |  |  |  |  |  |  |  | IC50 ([1]; DiFMUAc assay, PARK7 0.1 μM, 1 h preincubation, DiFMUAc 300 μM): 190 nM
Cc1conc1NS(=O)(=O)c1cccc(S(=O)(=O)F)c1 [Z2509450956] | 100.0 | 100.0 | 100.0 | 98.5 | 98.2 | 97.5 |  |  |  |  |  |  | 
O=[N+]([O-])c1ccccc1S(=O)(=O)F [Z3223579620] | 100.0 | 100.0 | 100.0 | 99.2 | 98.3 | 98.2 |  |  |  |  |  |  | 
CC(C)(C)c1ccc(NC(=O)CCl)cc1 [Z56922153] |  |  |  |  |  |  | 100 | 100 | 100 | 87.1 | 94.2 | 100 | 
Cc1ccc(C(=O)O)cc1S(=O)(=O)F [Z3242849759] | 100.0 | 100.0 | 100.0 | 93.6 | 95.8 | 93.1 |  |  |  |  |  |  | 
CSC1(C(=O)Nc2cccc(S(=O)(=O)F)c2)CC1 [Z1832812427] | 98.3 | 100.0 | 100.0 | 98.0 | 92.6 | 100.0 |  |  |  |  |  |  | 
CC(C#N)NS(=O)(=O)c1cccc(S(=O)(=O)F)c1 (stereo not shown) [Z2509451091] | 100.0 | 100.0 | 100.0 | 94.5 | 95.2 | 94.5 |  |  |  |  |  |  | 
CC1CCC(N(C)C(=O)CCl)CC1 (stereo not shown) [Z85923410] |  |  |  |  |  |  | 85.7 | 100 | 100 | 81.8 | 94.6 | 97.4 | 
CC(C)CC(=O)NNS(=O)(=O)c1cccc(S(=O)(=O)F)c1 [Z1764309349] |  |  |  |  |  |  |  |  |  |  |  |  | inhibition at 12.5 µM [2]: 100%; inhibition at 37.5 µM [2]: 100%; inhibition at 100 µM [2]: 100%; inhibition at 12.5 µM [1]: 94%; inhibition at 37.5 µM [1]: 94.6%; inhibition at 100 µM [1]: 94.4%
CC1=NOC(=O)C1CC(=O)O (stereo not shown) [Z367451146] |  |  |  |  |  |  | 100 | 100 | 100 | 92.2 | 100 | 100 | 
O=C(NNS(=O)(=O)c1cccc(S(=O)(=O)F)c1)C1CCC1 [Z1764398070] |  |  |  |  |  |  |  |  |  |  |  |  | inhibition at 12.5 µM [2]: 100%; inhibition at 37.5 µM [2]: 100%; inhibition at 100 µM [2]: 100%; inhibition at 12.5 µM [1]: 95.7%; inhibition at 37.5 µM [1]: 98%; inhibition at 100 µM [1]: 96.8%
O=C(CCl)c1ccc(F)c(C(=O)CCl)c1 [Z2768504793] |  |  |  |  |  |  | 100 | 100 | 100 | 98 | 98.5 | 95.9 | 
CCN(c1ccc(NC(=O)CCl)cc1)C(C)C [Z56896170] |  |  |  |  |  |  | 100 | 100 | 100 | 81.4 | 94.9 | 97.4 | 
O=S(=O)(F)c1cccc(S(=O)(=O)Nc2cccnc2O)c1 [Z1764375816] |  |  |  |  |  |  |  |  |  |  |  |  | inhibition at 12.5 µM [2]: 100%; inhibition at 37.5 µM [2]: 100%; inhibition at 100 µM [2]: 100%; inhibition at 12.5 µM [1]: 97.1%; inhibition at 37.5 µM [1]: 99.2%; inhibition at 100 µM [1]: 100%
CCn1ncnc1NS(=O)(=O)c1cccc(S(=O)(=O)F)c1 [Z2509462762] |  |  |  |  |  |  |  |  |  |  |  |  | inhibition at 12.5 µM [2]: 100%; inhibition at 37.5 µM [2]: 100%; inhibition at 100 µM [2]: 100%; inhibition at 12.5 µM [1]: 100%; inhibition at 37.5 µM [1]: 100%; inhibition at 100 µM [1]: 100%
O=[N+]([O-])c1cccc(S(=O)(=O)F)c1 [Z3243697698] | 100.0 | 100.0 | 100.0 | 100.0 | 100.0 | 100.0 |  |  |  |  |  |  | 
CC1CCc2ccccc2N1C(=O)CCl (stereo not shown) [Z220564178] |  |  |  |  |  |  | 100 | 100 | 100 | 80.5 | 79.6 | 91.4 | 
CCCc1nnc(NS(=O)(=O)c2cccc(S(=O)(=O)F)c2)o1 [Z2509455014] |  |  |  |  |  |  |  |  |  |  |  |  | inhibition at 12.5 µM [2]: 100%; inhibition at 37.5 µM [2]: 100%; inhibition at 100 µM [2]: 100%; inhibition at 12.5 µM [1]: 97.8%; inhibition at 37.5 µM [1]: 99.3%; inhibition at 100 µM [1]: 96.5%
O=C(CSC(F)(F)F)Nc1cccc(S(=O)(=O)F)c1 [Z1713569375] | 98.9 | 100.0 | 100.0 | 81.4 | 49.1 | 97.1 |  |  |  |  |  |  | 
O=C(CCl)C1CCOCC1 [Z2491498268] |  |  |  |  |  |  | 100 | 100 | 100 | 94.3 | 95.5 | 93.2 | 
